Converted amounts (≈) assume the structure as drawn.
Assays:
[1] = tested on: Mycolicibacterium smegmatis; experiment: Antimycobacterial activity was determined against Mycobacterium smegmatis SANK75075; type: functional
[2] = tested on: Mycobacterium intracellulare; experiment: Antimycobacterial activity against Mycobacterium intracellular ATCC 1954 E-3; type: functional
[3] = tested on: Mycobacterium kansasii; experiment: Antimycobacterial activity against Mycobacterium kansasii ATCC 12478; type: functional
[4] = target: T1, Phospho-N-acetylmuramoyl-pentapeptide-transferase (Escherichia coli K-12, UniProt P0A6W3); experiment: Inhibitory concentration required against Translocase I
T1 sequence (P0A6W3 whole entry): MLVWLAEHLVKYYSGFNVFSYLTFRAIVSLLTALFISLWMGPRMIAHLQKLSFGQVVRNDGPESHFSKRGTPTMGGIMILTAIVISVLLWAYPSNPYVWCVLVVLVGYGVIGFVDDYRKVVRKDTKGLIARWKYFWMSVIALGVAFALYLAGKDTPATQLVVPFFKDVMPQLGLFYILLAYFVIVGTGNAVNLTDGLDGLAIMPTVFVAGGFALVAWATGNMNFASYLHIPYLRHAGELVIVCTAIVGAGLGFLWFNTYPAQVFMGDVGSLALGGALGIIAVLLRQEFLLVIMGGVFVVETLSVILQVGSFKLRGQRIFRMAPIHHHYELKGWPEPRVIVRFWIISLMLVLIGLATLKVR

[5] = tested on: Mycobacterium avium; experiment: Antimycobacterial activity against Mycobacterium avium NIHJ1605; type: functional
[6] = target: T1, Phospho-N-acetylmuramoyl-pentapeptide-transferase; experiment: Inhibitory concentration against translocase-I

CCCCCCCCCCCCCCC(=O)O[C@@H]1[C@H](OC)[C@@H]([C@@H](O[C@H]2OC(C(=O)N[C@H]3CCC[C@@H](C)NC3=O)=C[C@H](O)[C@@H]2O)C(N)=O)O[C@H]1n1ccc(=O)[nH]c1=O
MIC [1]: 6.25 µg/mL (≈ 7.74 µM) | MIC [2]: 0.25 µg/mL (≈ 0.309 µM) | MIC [3]: 4 µg/mL (≈ 4.95 µM) | IC50 [4]: 2970 nM | MIC [5]: 0.125 µg/mL (≈ 0.155 µM)

CCCCCCO[C@@H]1[C@H](OC)[C@@H]([C@@H](O[C@H]2OC(C(=O)N[C@H]3CCC[C@@H](C)NC3=O)=C[C@H](O)[C@@H]2O)C(N)=O)O[C@H]1n1ccc(=O)[nH]c1=O
MIC [1]: 50 µg/mL (≈ 74.9 µM) | MIC [2]: 4 µg/mL (≈ 5.99 µM) | MIC [3]: 32 µg/mL (≈ 47.9 µM) | IC50 [4]: 59.9 nM | MIC [5]: 32 µg/mL (≈ 47.9 µM)

CCCCCCCCCC(=O)O[C@@H]1[C@H](OC)[C@@H]([C@@H](O[C@H]2OC(C(=O)N[C@H]3CCCCNC3=O)=C[C@H](O)[C@@H]2O)C(N)=O)O[C@H]1n1ccc(=O)[nH]c1=O
MIC [1]: 12.5 µg/mL (≈ 17.3 µM) | IC50 [6]: 414 nM | MIC [2]: 0.25 µg/mL (≈ 0.345 µM) | MIC [3]: 1 µg/mL (≈ 1.38 µM) | MIC [5]: 0.5 µg/mL (≈ 0.691 µM)

CCCCCCC(=O)O[C@@H]1[C@H](OC)[C@@H]([C@@H](O[C@H]2OC(C(=O)N[C@H]3CCCCNC3=O)=C[C@H](O)[C@@H]2O)C(N)=O)O[C@H]1n1ccc(=O)[nH]c1=O
MIC [1]: 25 µg/mL (≈ 36.7 µM) | IC50 [6]: 58.7 nM

CCCCCCC(=O)O[C@@H]1[C@H](OC)[C@@H]([C@@H](O[C@H]2OC(C(=O)N[C@H]3CCC[C@@H](C)NC3=O)=C[C@H](O)[C@@H]2O)C(N)=O)O[C@H]1n1ccc(=O)[nH]c1=O
MIC [1]: 50 µg/mL (≈ 71.9 µM) | MIC [2]: 1 µg/mL (≈ 1.44 µM) | MIC [3]: 2 µg/mL (≈ 2.87 µM) | IC50 [4]: 64.7 nM | MIC [5]: 4 µg/mL (≈ 5.75 µM)

CCCCCCCCC(=O)O[C@@H]1[C@H](OC)[C@@H]([C@@H](O[C@H]2OC(C(=O)N[C@H]3CCCCNC3=O)=C[C@H](O)[C@@H]2O)C(N)=O)O[C@H]1n1ccc(=O)[nH]c1=O
MIC [1]: 12.5 µg/mL (≈ 17.6 µM) | IC50 [6]: 254 nM

CO[C@H]1[C@@H](O)[C@H](n2ccc(=O)[nH]c2=O)O[C@@H]1[C@@H](O[C@H]1OC(C(=O)Nc2ccccc2)=C[C@H](O)[C@@H]1O)C(N)=O
MIC [1]: 6.25 µg/mL (≈ 11.7 µM) | MIC [2]: 4 µg/mL (≈ 7.48 µM) | MIC [3]: 8 µg/mL (≈ 15 µM) | IC50 [4]: 12.2 nM | MIC [5]: 16 µg/mL (≈ 29.9 µM)

CO[C@H]1[C@@H](O)[C@H](n2ccc(=O)[nH]c2=O)O[C@@H]1[C@@H](O[C@H]1OC(C(=O)N[C@H]2CCCCNC2=O)=C[C@H](O)[C@@H]1O)C(N)=O [CAPURAMYCIN]
MIC [1]: 12.5 µg/mL (≈ 21.9 µM) | IC50 [6]: 17.6 nM | MIC [2]: 8 µg/mL (≈ 14 µM) | MIC [3]: 8 µg/mL (≈ 14 µM) | MIC [5]: 8 µg/mL (≈ 14 µM)

— ChEMBL document CHEMBL1136175, “Synthesis and antimycobacterial activity of capuramycin analogues. Part 2: acylated derivatives of capuramycin-related compounds” (Bioorg Med Chem Lett, 2003)
